Assay results as given in patent publication US10172883B2, “Methods and compositions for treating and/or inhibiting toxins using copper-containing compounds” (ALATALAB SOLUTIONS, LLC, priority 2014, dated 2019).

Tests used:
[1] = tested on: fire ant venom-induced hemolysis of RBCs; assay: Live time microscopic imaging of fire ant venom-induced hemolysis of RBCs; type: cell-based, human; conditions: 10 ng/μL fire ant venom, 1 μM copper gluconate, single dose
[2] = tested on: live Alatina alata tentacles on human RBC agar; assay: RBC agar slide hemolysis by live Alatina alata tentacles; type: cell-based; conditions: 10 μM in agar slide, 2% fresh human RBC, 37° C., one hour
Protocol: 2-20 mm sections of fresh live Alatina alata tentacles were placed on top of freshly prepared RBC agar slide (3% NuSieve GTG low melting agarose, 150 mM NaCl with 2% fresh human RBC). Slides were incubated at 37° C. for one hour. Zones of hemolysis are observed in control slide (FIG. 5, left) but not in slides prepared with 10 μM Copper Gluconate (3% NuSieve GTG low melting agarose, 150 mM NaCl, 10 μM Copper Gluconate with 2% fresh human RBC) (FIG. 5, right). A zone of hemolysis indicates lysis of the red blood cells.

[3] = tested on: fire ant venom (Solenopsis invicta) induced hemolysis of human red blood cells (RBCs); type: cell-based
[4] = tested on: box jellyfish venom (Alatina alata) induced hemolysis of human RBCs; assay: Inhibition of box jellyfish venom induced hemolysis of human RBCs; type: cell-based; conditions: for concentration at which active for box jellyfish venom inhibition: 5 units/mL/% RBC box jellyfish venom, 1 hour, 37° C., active at this concentration or greater
[5] = tested on: cnidarian sting blistering inflammation; assay: Live jelly sting test, blistering inflammation; type: in vivo
[6] = tested on: hemolytic toxins; conditions: 10 mM d-lactulose; cited from earlier work

Question: For copper gluconate, which slowing of hemolysis [1] is on record?
Answer: Its slowing of hemolysis is 6 fold.

Question: And the “zones of hemolysis observed” value [2]?
Answer: Its value is “not”.

Question: And the “concentration at which active for fire ant venom inhibition” value [3]?
Answer: The value was “approximately 3 μM”.

Question: What about the “efficacy relative to zinc gluconate in the inhibition of ant venom” value [3] of the same molecule?
Answer: The value was “approximately 10,000 times”.

Question: What about the “potency relative to zinc gluconate alone in inhibiting box jellyfish venom” value [4] of the same molecule?
Answer: Its value is “approximately 10 times”.

Question: And the “concentration at which active for box jellyfish venom inhibition” value [4]?
Answer: The value was “approximately 30 μM”.

Question: Which results are given for `O=C(Nc1ccc(Cl)cc1)Nc1ccc(Cl)c(Cl)c1` [TCC, triclocarban]?
Answer: resolution of blistering inflammation ([5]; 1% TCC in vanacreme, topical, untreated test lasted up to 72 hr): fully resolving the blistering inflammation; time to resolve blistering inflammation ([5]; after application of a live jelly in a sting test): ≤ 90 min

Question: With `OC[C@H]1O[C@@H](O[C@@H]2[C@@H](CO)O[C@](O)(CO)[C@H]2O)[C@H](O)[C@@H](O)[C@H]1O` [d-lactulose] as the molecule, how does the hemolysis [6] read?
Answer: The hemolysis was “dramatic absence of hemolysis”.

Question: Which “concentration at which active for fire ant venom inhibition” value [3] does the source give for zinc gluconate here?
Answer: The value was “approximately 25 mM”.

Question: What about the “effect on hemolysis at early time points” value [3] of the same molecule?
Answer: The value was “potently stimulated hemolysis”.

Question: What about the “concentration at which active for box jellyfish venom inhibition” value [4] of the same molecule?
Answer: The value was “approximately 300 μM”.
